Columns and labels:
[1] = Metabolic (microsomal) stability assay, rat liver microsomes; type: in vitro ADME; details: predicted clearance as percent of liver blood flow; rat liver microsomes 0.5 mg/mL, 1 μM compound, 37° C.
Procedure: (§1) Metabolic (Microsomal) Stability Assay
(§2) The metabolic degradation of the test compound is assayed at 37° C. with pooled liver microsomes (mouse (MLM), rat (RLM) or human (HLM)). The final incubation volume of 74 μL per time point contains TRIS buffer (pH 7.5; 0.1 M), magnesium chloride (6.5 mM), microsomal protein (0.5 mg/mL for mouse/rat, 1 mg/mL for human specimens) and the test compound at a final concentration of 1 μM. Following a short preincubation period at 37° C., the reactions are initiated by addition of 8 μL beta-nicotinamide adenine dinucleotide phosphate, reduced form (NADPH, 10 mM) and terminated by transferring an aliquot into solvent after different time points. Additionally, the NADPH-independent degradation is monitored in incubations without NADPH, terminated at the last time point by addition of acetonitril. The quenched incubations are pelleted by centrifugation (1811 g, 5 min). An aliquot of the supernatant is assayed by LC-MS/MS for the amount of parent compound.
(§3) In vitro intrinsic clearance (CLint,in vitro) is calculated from the time course of the disappearance of the test drug during the microsomal incubation. Each plot is fitted to the first-order elimination rate constant as C(t)=C0*exp(−ke*t), where C(t) and C0 are the concentration of unchanged test drug at incubation time t and that at preincubation and ke is the disappearance rate constant of the unchanged drug. Subsequently, CLint,in vitro (μL·min^−1·amount protein) values are converted to CLint,in vitro (mL·min^−1·kg^−1) for the whole body. CLint,in vitro data are scaled up using physiological parameters. For better across species comparison the predicted clearance is expressed as percent of the liver blood flow [% QH] in the individual species. In general high stability (corresponding to low % QH) of the compounds across species is desired.

[2] = Metabolic (microsomal) stability assay, mouse liver microsomes; type: in vitro ADME; details: predicted clearance as percent of liver blood flow; mouse liver microsomes 0.5 mg/mL, 1 μM compound, 37° C.
Procedure: as §1, §2, §3

[3] = Metabolic (microsomal) stability assay, human liver microsomes; type: in vitro ADME; details: predicted clearance as percent of liver blood flow; human liver microsomes 1 mg/mL, 1 μM compound, 37° C.
Procedure: as §1, §2, §3

[4] = target: CDK8/cyclin C (Homo sapiens (Human), UniProt P49336); assay: CDK8 biochemical assay (TR-FRET Kinase Tracer 236 displacement); type: binding; details: 5 nM CDK8/cyclin C, 10 nM Kinase Tracer 236, 60 min
Procedure: This assay is used to identify compounds which competitively interact with the binding pocket of the CDK8 kinase.
Assay-ready plates (ARPs; Proxiplate-384 PLUS, white, PerkinElmer) with compound solution in 100% DMSO are generated on an Access Labcyte Workstation with the Labcyte Echo 55x. 150 nL of compound solution are transferred per well in 11 concentrations in duplicates with serial 1:5 dilutions. The final DMSO concentration in the assay is 1%.
5 nM (final assay concentration) CDK8/cyclin C, 2 nM (final assay concentration) Biotin anti-His Tag Antibody and 2 nM (final assay concentration) LanthaScreen Eu-Streptavidin are mixed in assay buffer (50 mM HEPES pH 7.3, 10 mM MgCl2, 1 mM EGTA, 0.01% Brij-35, 0.05% BSA, 1 mM DTT) prior to use and kept at room temperature.
The assay runs on a fully automated robotic system. 10 μL of CDK8/cyclin C, Biotin anti-His Tag Antibody and LanthaScreen Eu-Streptavidin mix are dispensed into columns 1-24. 5 μL of 10 nM (final assay concentration) Kinase Tracer 236 solution in assay buffer are added to columns 1-23, 5 μL of assay buffer into column 24. Plates are kept at room temperature in a darkened incubator. After 60 min incubation time the signal is measured in a PerkinElmer Envision HTS Multilabel Reader using the TR-FRET specs from PerkinElmer.
Each plate contains 16 wells of a negative control (diluted DMSO instead of test compound; CDK8/cyclin C, Biotin anti-His Tag Antibody and LanthaScreen Eu-Streptavidin mix w Kinase Tracer 236; column 23) and 16 wells of a positive control (diluted DMSO instead of test compound; CDK8/cyclin C, Biotin anti-His Tag Antibody and LanthaScreen Eu-Streptavidin mix w/o Kinase Tracer 236; column 24). A known inhibitor of CDK8/cyclin C binding is used as internal control. IC50 values are calculated and analyzed in the MEGALAB IC50 application using a 4 parametric logistic model.
Table 4 includes IC50 values of example compounds determined using the above assay.

CDK8/cyclin C, sequence (P49336 whole entry): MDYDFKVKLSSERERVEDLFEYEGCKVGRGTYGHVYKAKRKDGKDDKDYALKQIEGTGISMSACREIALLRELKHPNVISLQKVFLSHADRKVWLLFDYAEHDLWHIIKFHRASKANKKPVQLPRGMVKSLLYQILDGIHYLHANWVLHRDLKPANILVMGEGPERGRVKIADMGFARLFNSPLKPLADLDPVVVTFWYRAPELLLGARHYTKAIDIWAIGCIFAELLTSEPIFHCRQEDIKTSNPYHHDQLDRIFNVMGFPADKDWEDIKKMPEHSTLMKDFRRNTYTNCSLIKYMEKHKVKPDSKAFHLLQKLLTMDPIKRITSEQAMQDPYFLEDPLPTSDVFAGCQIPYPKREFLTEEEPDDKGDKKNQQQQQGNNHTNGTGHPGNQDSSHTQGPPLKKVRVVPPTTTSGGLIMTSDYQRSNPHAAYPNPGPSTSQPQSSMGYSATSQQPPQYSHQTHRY
CDK8/cyclin C, sequence (P24863 whole entry partner): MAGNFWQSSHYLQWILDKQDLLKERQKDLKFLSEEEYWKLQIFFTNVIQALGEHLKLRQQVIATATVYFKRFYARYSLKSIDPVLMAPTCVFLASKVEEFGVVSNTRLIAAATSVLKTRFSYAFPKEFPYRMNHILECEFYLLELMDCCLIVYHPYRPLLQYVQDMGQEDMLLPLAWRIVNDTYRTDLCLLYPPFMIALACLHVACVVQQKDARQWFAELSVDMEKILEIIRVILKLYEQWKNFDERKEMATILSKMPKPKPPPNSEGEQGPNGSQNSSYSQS

| SMILES | RLM [% QH] [1] | MLM [% QH] [2] | HLM [% QH] [3] | IC50 [4] |
| --- | --- | --- | --- | --- |
| CC(=O)N[C@H]1CCN(c2ccc(Oc3ccnc4c(F)cncc34)cc2)C1 [I-023] | <24 % QH | <24 % QH | <24 % QH | 2.1 nM |
| CN(C)C(=O)CCOc1ccc(Oc2ccnc3c(F)cncc23)cc1 [I-036] | 32 % QH | <24 % QH | <24 % QH | 4.8 nM |
| CN1CCC(COc2ccc(Oc3ccnc4c(F)cncc34)cc2)C1=O (stereo not drawn) [I-035] | 35 % QH | <24 % QH | <24 % QH | 3.7 nM |

Reference: patent US11261184B2, “[1,6]naphthyridine compounds and derivatives as CDK8/CDK19 inhibitors” (Boehringer Ingelheim International GmbH, priority 2017, dated 2022)
